This experiment concerns the target T1, Enoyl-ACP reductase (Plasmodium falciparum, UniProt Q9BJJ9).
T1 sequence (Q9BJJ9 whole entry): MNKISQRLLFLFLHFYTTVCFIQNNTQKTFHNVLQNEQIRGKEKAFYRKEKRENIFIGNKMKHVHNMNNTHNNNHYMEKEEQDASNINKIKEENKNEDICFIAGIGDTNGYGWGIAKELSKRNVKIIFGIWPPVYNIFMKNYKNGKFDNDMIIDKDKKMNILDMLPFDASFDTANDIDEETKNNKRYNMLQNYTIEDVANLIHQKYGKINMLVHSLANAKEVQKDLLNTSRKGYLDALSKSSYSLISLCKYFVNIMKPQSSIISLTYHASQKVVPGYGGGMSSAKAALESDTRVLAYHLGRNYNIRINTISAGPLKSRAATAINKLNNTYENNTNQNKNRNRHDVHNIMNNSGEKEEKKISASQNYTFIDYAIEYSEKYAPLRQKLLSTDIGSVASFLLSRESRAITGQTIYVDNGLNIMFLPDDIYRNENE
The experiment in a line: PfENR Enzymatic Inhibition Assay. The note with it: pH 7.9; 25 °C. On the procedure: PfENR inhibition assays were carried out on a Cary 100 Bio Spectrophotometer or POLARstar Optima by monitoring oxidation of NADH at 340 nm. The IC50 was determined from a dose-response plot of enzyme fractional activity as a function of inhibitor concentration.
The IC50 is the midpoint of a concentration-inhibition curve. Low readings indicate higher potency, high ones lower potency. With `Oc1cc(Cl)ccc1Oc1ccc(Cl)cc1Cl`, the midpoint of inhibition, the IC50, lay at 0.073 µM.

With `Oc1cc(-c2nn[nH]n2)ccc1Oc1ccc(Cl)cc1Cl` [2-(2,4-dichlorophenoxy)-5-(2H-1,2,3,4-tetrazol-5-yl)phenol], the concentration for half-maximal inhibition (IC50) is > 100 µM.

On to `O=C(O)c1ccc(Oc2ccc(Cl)cc2Cl)c(O)c1` [4-(2,4-dichlorophenoxy)-3-hydroxybenzoic acid], for which the IC50 was > 100 µM.

Source of the values: BindingDB's records for doi:10.1074/jbc.M701813200 (Jacobus Pharmaceutical, 2007).
